Source: paper PMC11778240, “Synthesis and preclinical evaluation of tigilanol tiglate analogs as latency-reversing agents for the eradication of HIV” (Science Advances, 2025)
Where “and” joins values, the source holds several entries; their conditions need not be identical. Equal entries are not always repeated. Where two headings read alike, the source gives them in different places.

Assays:
PKC-β-I = target: T1, PKC-β-I (Homo sapiens, UniProt P05771); assay: Cell-free PKC competition binding assay against 3H-PDBu; conditions: for PKC-β selectivity: Fig. 7A, PKC-β over PKC-δ; for logKi (best-fit value), PKC-β-I: log of Ki in nM; for PKC binding affinity and selectivity in words / decrease in PKC binding affinity / potency compared to EBC-46: PKC-β and PKC-δ
T1 construct: purchased Invitrogen
T1 sequence (P05771 whole entry): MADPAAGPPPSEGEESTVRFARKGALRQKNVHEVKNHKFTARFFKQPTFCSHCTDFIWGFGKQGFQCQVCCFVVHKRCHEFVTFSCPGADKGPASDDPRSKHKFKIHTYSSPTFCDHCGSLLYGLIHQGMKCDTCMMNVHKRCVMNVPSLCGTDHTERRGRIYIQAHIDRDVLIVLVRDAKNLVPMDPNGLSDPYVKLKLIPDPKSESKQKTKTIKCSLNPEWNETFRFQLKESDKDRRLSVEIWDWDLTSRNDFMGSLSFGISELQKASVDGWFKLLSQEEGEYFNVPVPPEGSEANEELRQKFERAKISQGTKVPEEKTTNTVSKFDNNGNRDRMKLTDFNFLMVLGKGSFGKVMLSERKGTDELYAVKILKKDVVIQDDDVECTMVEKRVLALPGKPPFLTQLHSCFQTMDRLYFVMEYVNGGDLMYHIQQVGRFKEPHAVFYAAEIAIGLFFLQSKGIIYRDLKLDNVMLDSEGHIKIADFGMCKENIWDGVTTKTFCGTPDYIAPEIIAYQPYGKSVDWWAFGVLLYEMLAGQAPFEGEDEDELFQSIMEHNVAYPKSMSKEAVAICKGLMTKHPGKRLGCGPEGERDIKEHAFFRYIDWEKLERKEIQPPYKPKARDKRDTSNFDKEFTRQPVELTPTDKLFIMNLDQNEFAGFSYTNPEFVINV
Text: (§1) With a diverse library of compounds bearing unique functionalities on the A-, B-, and C-rings (Fig. 6), we began to explore how these modifications affect PKC binding (Fig. 7A), NF-κB activation (Fig. 7B), cell permeation and PKC translocation (Fig. 7, C and D), and latency reversal in J-Lat cells (Fig. 8). […] We conducted this assay with phosphatidyl serine vesicles in solution that mimic the cellular membrane and play a critical role in the binding of small molecules to the PKC C1 domain (Fig. 7A) ([64]).
(§2) Cell-free PKC Binding Assay
The protein kinase C (PKC) affinity of EBC-46 and EBC-46 analogs was determined via […]
entails a glass-fiber filtration method to determine bound radioligand. The method of determining the radioligand Kd is also described.
(§3) Tris HCl (Fisher, ≥ 99%, stored at room temperature)
(§4) Phosphatidylserine (Avanti Polar Lipids, porcine, 25 mg/mL CHCl3 solution, stored at - […]
(§5) Bovine serum albumin (Sigma -Aldrich, ≥ 98%, globulin free, protease free, stored at 4 […]
Human PKC-β-I-GST fusion protein (Invitrogen, aliquoted and stored at -78 °C) Human PKC-δ-GST fusion protein (Invitrogen, aliquoted and stored at -78 °C) Glass-fiber filters (Whatman GF/B) […]
(§6) a final concentration of 500 nM.
(§7) Preparation of phosphatidylserine (PS) vesicles :
(§8) For every 96 samples, 3.5 mg phosphatidylserine (140 μL) (25 mg/mL CHCl3 solution) was concentrated by removing chloroform under reduced pressure. The phosphatidylserine residue was resuspended in freshly prepared PKC binding assay buffer (3.5 mL), capped, and then thoroughly mixed by alternating between sonicating and vortexing, in 10 second intervals for 1 minute or until a cloudy white mixture (Branson Sonifier 250, power = 2, 50% duty cycle). The resulting cloudy white mixture (1 mg/mL) was stored on ic e until use.
(§9) Preparation of the "master mix" Solution :
(§10) Constituent Stock concentration (final concentration/amount in “master mix”):
(§11) PS vesicles (0.103 mg/mL)
(§12) Deionized H2O - Final vol of 30 mL
(§13) Preparation of PKC binding assay buffer:
(§14) For every 96 samples, to a 50 mL polypropylene tube was added Tris -HCl (pH 7.4, 1 M, 1.5 mL), KCl (1 M, 3 mL), CaCl2 (0.1 M, 35 μL – conventional isoforms only), and bovine serum albumin (60 mg). This mixture was diluted to 30 mL with deionized H2O and mixed gently. The buffer was […]
(§15) Preparation of PKC isoform solution:
(§16) For every 96 samples, PKC isoform solution was prepared by dissolving a 4 μg aliquot of the indicated recombinant human PKC isoform into 26.5 mL of PKC binding assay buffer. The diluted PKC was stored on ice for immediate use.
(§17) Preparation of PKC “master mix” solution:
(§18) To the PKC-isoform solution was added 1 mg/mL PS vesicles solution (3.30 mL), and 500 nM […]
(§19) The resulting “master mix” solution was vortexed and stored on […]
(§20) Preparation of analog compound dilutions:
(§21) Compound dilutions were prepared with filtered DMSO by serially diluting from a chosen "high" concentration. For the saturation binding experiment (radioligand Kd determination), the maximum radioligand concentration used was 4.0 nM with 2-fold dilutions between data points […]
(§22) the middle of the binding curve.
For the competition binding experiment (analog Ki determination), 7 or 14 concentrations were used to define the inhibition curve, and compounds dilutions changed by factors of 2 or √2 between data points. The concentrations were chosen such that the in-assay concentration for the data points in the middle of the binding curve were approximately equal to the IC50 of the compound (if the IC50 is unknown, an exploratory binding assay is recommended prior to Ki determination). For assays with one compound per sheet, the √2-fold dilutions were prepared for the concentrations in […]
PKC binding assay protocol (Saturation -binding experiment and Competition -binding experiment)
1) Glass-fiber filters were prepared by soaking them in a solution of aqueous polyethyleneimine

PKC-δ = target: T2, PKC-δ (Homo sapiens, UniProt Q05655); assay: as above
T2 construct: purchased Invitrogen (Sinobiological for the SUW402 experiment)
T2 sequence (Q05655 whole entry): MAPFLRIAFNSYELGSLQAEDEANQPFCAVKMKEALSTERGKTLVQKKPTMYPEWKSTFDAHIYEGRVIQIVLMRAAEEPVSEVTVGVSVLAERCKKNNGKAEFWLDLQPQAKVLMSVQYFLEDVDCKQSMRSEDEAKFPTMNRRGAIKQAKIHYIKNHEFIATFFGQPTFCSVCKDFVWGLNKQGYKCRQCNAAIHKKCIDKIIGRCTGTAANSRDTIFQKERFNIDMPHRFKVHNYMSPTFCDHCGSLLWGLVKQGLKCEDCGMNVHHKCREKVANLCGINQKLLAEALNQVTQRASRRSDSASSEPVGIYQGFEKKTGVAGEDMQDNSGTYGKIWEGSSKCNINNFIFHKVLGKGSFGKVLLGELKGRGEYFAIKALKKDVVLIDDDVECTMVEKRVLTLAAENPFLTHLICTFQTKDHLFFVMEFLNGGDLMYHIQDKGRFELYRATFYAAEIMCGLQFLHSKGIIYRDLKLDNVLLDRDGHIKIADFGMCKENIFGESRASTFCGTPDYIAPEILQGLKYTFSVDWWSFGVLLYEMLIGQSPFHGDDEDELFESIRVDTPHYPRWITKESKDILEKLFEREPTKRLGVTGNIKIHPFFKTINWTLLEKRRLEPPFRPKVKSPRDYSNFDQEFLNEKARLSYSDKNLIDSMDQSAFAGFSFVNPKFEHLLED
Text: as §1, §2
The protein kinase C (PKC) affinity of EBC-46 and EBC-46 analogs was determined via competition with 3H-phorbol-12,13-dibutyrate (3H-PDBu) as described below. This procedure entails a glass-fiber filtration method to determine bound radioligand. The method of determining the radioligand Kd is also described.
as §3, §4, §5
Human PKC-β-I-GST fusion protein (Invitrogen, aliquoted and stored at -78 °C) Human PKC-δ-GST fusion protein (Invitrogen, aliquoted and stored at -78 °C) Glass-fiber filters (Whatman GF/B)
Preparation of 3H -PDBu solution : […]
as §6, §7, §8, §9, §10, §11, §12, §13, §14, §15, §16, §17, §18, §19, §20, §21
isoforms ranges from 0.3 – 0.8 nM. […]
as §22
For the competition binding experiment (analog Ki determination), 7 or 14 concentrations were used to define the inhibition curve, and compounds dilutions changed by factors of 2 or √2 between data points. The concentrations were chosen such that the in-assay concentration for the data points in the middle of the binding curve were approximately equal to the IC50 of the compound (if the IC50 is unknown, an exploratory binding assay is recommended prior to Ki determination). For assays with one compound per sheet, the √2-fold dilutions were prepared for the concentrations in the middle of the curve (e.g., for SUW400, the analog dilutions used were 15000 nM, 7500 nM, […]
PKC binding assay protocol (Saturation -binding experiment and Competition -binding experiment) […]

[1] = HotNM 2.5, HotKdNM 0.37, supplement fit, read-out: Ki (best-fit value), PKC-β-I
[2] = competition against radiolabeled PDBu, Fig. 7A and text, read-out: Ki PKC-β
[3] = HotNM 2.5, HotKdNM 0.62, supplement fit, read-out: Ki (best-fit value), PKC-δ
[4] = competition against radiolabeled PDBu, Fig. 7A and text, read-out: Ki PKC-δ
[5] = log of Ki in nM, HotNM 2.5, HotKdNM 0.62

SMILES | selectivity for PKC-β over PKC-δ (PKC-β-I) | preference for binding PKC-β over PKC-δ (PKC-β-I; Discussion) | PKC-β selectivity (PKC-β-I) | Ki (PKC-β-I; [1]) | Ki (PKC-β-I; [2]) | logKi (best-fit value), PKC-β-I (PKC-β-I; HotNM 2.5, HotKdNM 0.37) | Ki (PKC-δ; [3]) | Ki (PKC-δ; [4]) | logKi (best-fit value), PKC-δ (PKC-δ; [5]) | PKC binding affinity and selectivity in words (PKC-β-I) | logKi (best-fit value), PKC-δ (PKC-δ; PKC-δ-GST from a different vendor (Sinobiological), HotNM 2.5, HotKdNM 2.94) | Ki (PKC-δ; PKC-δ-GST from a different vendor (Sinobiological), HotNM 2.5, HotKdNM 2.94, read-out: Ki (best-fit value), PKC-δ) | decrease in PKC binding affinity / potency compared to EBC-46 (PKC-β-I)
C/C=C(\C)C(=O)O[C@@H]1[C@@H](C)[C@@]2(O)[C@H]([C@@H]3C(C)(C)[C@]13OC(=O)[C@@H](C)CC)[C@@H]1O[C@]1(CO)[C@@H](O)[C@]1(O)C(=O)C(C)=C[C@H]12 [EBC-46, Tigilanol tiglate] | twofold | 2.3 × | 2.3 | 1.38 nM | 1.4 nM | 0.1397 | 3.24 nM | 3.2 nM | 0.5102 |  |  |  | 
C/C=C(\C)C(=O)O[C@@H]1[C@@H](C)[C@]2(O)[C@@H]3C=C(C)C(=O)[C@@]3(O)[C@H](O)C(CO)=C[C@H]2[C@@H]2C(C)(C)[C@]12OC(=O)[C@@H](C)CC [SUW400] |  |  | 2.9 | 0.851 nM | 0.85 nM | -0.07019 | 2.53 nM | 2.5 nM | 0.4034 | nearly identical binding affinity and selectivity compared to EBC-46 |  |  | 
C/C=C(\C)C(=O)O[C@@H]1[C@@H](C)[C@@]2(O)[C@@H](C=C(CO)C[C@]3(O)C(=O)C(C)=C[C@@H]23)[C@@H]2C(C)(C)[C@]12OC(=O)[C@@H](C)CC [SUW402] |  |  | 3.7 | 0.118 nM | 0.12 nM | -0.9263 |  | 0.44 nM |  | remarkable affinities in the picomolar range | -0.3561 | 0.44 nM | 
CC=C(C)C(=O)OC1C(C)C2(O)C(C3OC3(CO)CC3(O)C(=O)C(C)=CC32)C2C(C)(C)C12OC(=O)C(C)CC (stereo not drawn) [SUW403] |  |  | 2.7 | 7.9 nM | 7.9 nM | 0.8975 | 21.4 nM | 21 nM | 1.330 |  |  |  | approximately fivefold
C/C=C(\C)C(=O)O[C@@H]1[C@@H](C)[C@@]2(O)[C@H]([C@@H]3C(C)(C)[C@]13OC(=O)C1CCC1)[C@@H]1O[C@]1(CO)[C@@H](O)[C@]1(O)C(=O)C(C)=C[C@H]12 [SUW406] | fourfold |  | 3.8 | 1.98 nM | 2 nM | 0.2968 | 7.5 nM | 7.5 nM | 0.8752 |  |  |  | 
C/C=C(\C)C(=O)O[C@@H]1[C@@H](C)[C@@]2(O)[C@H]([C@@H]3C(C)(C)[C@]13OC(=O)[C@H](C)CC)[C@@H]1O[C@]1(CO)[C@@H](O)[C@]1(O)C(=O)C(C)=C[C@H]12 [SUW407] |  |  | 1.6 | 2.31 nM | 2.3 nM | 0.3637 | 3.73 nM | 3.7 nM | 0.5722 |  |  |  | 
CC[C@H](C)C(=O)O[C@@]12[C@H](OC(=O)C3(C)CC3)[C@@H](C)[C@@]3(O)[C@H]([C@@H]1C2(C)C)[C@@H]1O[C@]1(CO)[C@@H](O)[C@]1(O)C(=O)C(C)=C[C@H]13 [SUW413] |  |  | 3.9 | 2.45 nM | 2.5 nM | 0.3892 | 9.66 nM | 9.7 nM | 0.9851 | very similar binding affinity to both PKC-β and PKC-δ compared to SUW406 |  |  | 
C/C=C(\C)C(=O)O[C@@H]1[C@@H](C)[C@@]2(O)[C@H]([C@@H]3C(C)(C)[C@]13OC(=O)N1CCCC1)[C@@H]1O[C@]1(CO)[C@@H](O)[C@]1(O)C(=O)C(C)=C[C@H]12 [SUW421] | 10 fold |  | 9.5 | 20.1 nM | 20 nM and ~25 nM | 1.302 | 194 nM | 190 nM | 2.288 |  |  |  | > 10 fold
C/C=C(\C)C(=O)O[C@@H]1[C@@H](C)[C@]2(O)[C@@H]3C=C(C)[C@H](OC(=O)c4ccccc4)[C@@]3(O)[C@H](O)C(CO)=C[C@H]2[C@@H]2C(C)(C)[C@]12OC(=O)[C@@H](C)CC [SUW422] |  |  | 2.1 | 1.49 nM | 1.5 nM | 0.1731 | 3.04 nM |  | 0.4832 | nearly identical binding potency and selectivity to EBC-46 |  |  | 
CC[C@H](C)C(=O)O[C@@]12[C@H](OC(=O)N3CCCC3)[C@@H](C)[C@@]3(O)[C@H]([C@@H]1C2(C)C)[C@@H]1O[C@]1(CO)[C@@H](O)[C@]1(O)C(=O)C(C)=C[C@H]13 [SUW424] | 6 fold |  | 6.1 | 27.8 nM | 28 nM and ~25 nM | 1.445 | 175 nM | 170 nM | 2.242 |  |  |  | > 10 fold
